Experimental data: publication PMC6901946, “Intranasal MMI-0100 Attenuates Aβ1−42- and LPS-Induced Neuroinflammation and Memory Impairments via the MK2 Signaling Pathway” (Frontiers in Immunology, 2019)
Ends that are not written are not given here.

Legend:
Kunming mice [1] = test: Novel object recognition (NOR) task; type: in vivo, mouse; conditions: Aβ1−42 800 pmol i.c.v. 14 days before, tested after 24 h
Protocol: (§1) MMI-0100 or vehicle was infused into the brain by using a 32-gauge stainless steel syringe needle placed in and projecting 0.5 mm below the tip of the cannula for 2 min. This needle was connected via a PE tube to a 5-μl Hamilton syringe mounted to a Microdrive pump (KD Scientific). To allow the drug to diffuse, the infusion syringe remained in place for 1 min. For the lateral ventricle, injection volume is 2 μl, and for the bilateral hippocampus CA1, injection volume is 0.5 μl/side. After drug administration, each mouse was subjected to behavioral testing immediately. In addition, the selection of the doses was based on the previous reports and our preliminary observations ([24]).
(§2) The behavior experiments were carried out 15 min after i.c.v. injection of MMI-0100, or 2 h after intranasal infusion of MMI-0100. The cytokines were measured 15 min after i.c.v. injection of MMI-0100.
(§3) The procedures for the novel object recognition (NOR) and object location recognition (OLR) tasks were described in our previous report ([23], [30]). The videos for NOR and OLR tasks were shown in Supplementary Material. […] The discrimination index (DI) in the memory retention phase was calculated as the percentage of the time a mouse explored the new object or location over the total time the mouse explored the two objects or locations. […]

Kunming mice [2] = test: Object location recognition (OLR) task; type: in vivo, mouse; conditions: Aβ1−42 800 pmol i.c.v. 14 days before, tested after 24 h
Protocol: as §1, §2, §3

IL-6, IL-1β, TNF-α, iNOS = test: Quantitative PCR of pro-inflammatory factors in hippocampus; type: in vivo, mouse; conditions: Aβ1−42-induced model; 15 min after i.c.v. MMI-0100; Figure 5; n = 5
Protocol: Amnesia was caused by Aβ1−42 injection for 14 days or LPS infusion for 3 days; 15 min after injection of MMI-0100 or vehicle, the hippocampus was removed from mice. Real-time RT-PCR was performed according to a previous report ([31]). Total RNA was extracted using Trizol reagent (TaKaRa) and 1 μg of RNA in each sample was reversely transcribed into a single-stranded complementary DNA with the 5X PrimeScript RT Master Mix (TaKaRa) following the manufacturer's instructions. Amplification was carried out in a 25 μl reaction mixture consisting of 12.5 μl of 2X SYBR Premis Ex TaqTM II, 2 μl of cDNA, 1 μl of forward primer, 1 μl of reverse primer, and 8.5 μl of H2O, and was run under the following conditions: 95°C for 30 s, followed by 40 cycles of 95°C for 5 s, 58°C for 30 s, and 72°C for 30 s. The primer pair P1/P2 was used in the RT-PCR assay to identify the expression level of TNF-α, IL-6, IL-1β, and iNOS gene in vehicle + vehicle-, Aβ1−42 + vehicle-, Aβ1−42 + MMI-0100-, LPS + vehicle-, and LPS + MMI-0100-treated groups.

TNF-α, IL-1β, IL-6 = test: ELISA of pro-inflammatory cytokines in hippocampus; type: in vivo, mouse; conditions: Aβ1−42-induced model, Figure 6, n = 5
Protocol: Total proteins from the hippocampus of mice in each group were extracted with RIPA lysis buffer containing protease inhibitor (Gibco, Thermo Fisher Scientific, Inc.). Total proteins were determined using a bicinchoninic acid protein assay kit (Sangon Biotech Co., Ltd.). IL-1β, IL-6, and TNF-α in the hippocampus tissue were measured using ELISA kits (cat number: E-EL-M0049 for TNF-α, cat number: E-EL-M0044 for IL-6, cat number: E-EL-M0037 for IL-1β, Elabscience), according to the manufacturer's instructions.

MK2 = biological target: T1, MK2 (Mus musculus, UniProt P49138); test: Western blotting of pMK2 in hippocampus; type: in vivo; conditions: Aβ1−42-induced model; Figure 7; n = 5
T1 construct: the protein samples (40 μg per lane) isolated from the hippocampus were separated by SDS-PAGE; from tissue; host or cells: mouse hippocampus
T1 sequence (P49138 whole entry): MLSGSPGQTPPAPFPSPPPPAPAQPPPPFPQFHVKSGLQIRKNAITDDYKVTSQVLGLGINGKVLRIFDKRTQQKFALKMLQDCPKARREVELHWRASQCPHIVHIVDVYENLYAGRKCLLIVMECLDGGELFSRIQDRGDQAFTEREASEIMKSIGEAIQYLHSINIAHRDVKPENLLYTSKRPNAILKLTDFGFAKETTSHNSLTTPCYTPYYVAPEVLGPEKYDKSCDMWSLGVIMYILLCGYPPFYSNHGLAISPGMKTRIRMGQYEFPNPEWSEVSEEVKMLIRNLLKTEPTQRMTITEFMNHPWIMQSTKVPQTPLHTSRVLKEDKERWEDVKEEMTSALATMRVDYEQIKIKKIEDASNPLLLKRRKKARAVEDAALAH
Protocol: Western blotting was carried out as per the manufacturer's instructions (Bio-Rad Laboratories, Inc). Protein was extracted with RIPA buffer containing protease inhibitor (Gibco; Thermo Fisher Scientific, Inc.). The protein concentration was determined using a BCA protein assay kit (Pierce; Thermo Fisher Scientific, Inc.). Briefly, the protein samples (40 μg per lane) isolated from the hippocampus were separated by SDS-PAGE and electrophoretically transferred onto polyvinylidene fluoride membranes. Membranes were blocked with 5% skimmed milk for 2 h and incubated overnight at 4°C with specific first antibodies. GAPDH was used as a loading control. Subsequently, the membranes were incubated with the corresponding secondary antibodies and the reaction was visualized with chemiluminescence reagents provided with an ECL kit (Thermo) and exposed to a film. The intensity of the blots was quantified with densitometry (Image J 1.49v; National Institutes of Health).

in vitro = conditions: mouse, brain homogenates
Protocol: The peptide levels after incubation were expressed as percent parent remaining. Points indicate the means and vertical lines indicate the SEM of 3 separate experiments.

[3] = intranasal experiment (Figure 10), MMI-0100 25 nmol intranasal or vehicle

Substance | discrimination index (DI), NOR (Kunming mice [1]; Figure 2A, MMI-0100 5 nmol i.c.v. or vehicle, chance level 50%) [%] | discrimination index (DI), NOR (Kunming mice [1]; [3]) [%] | discrimination index (DI), OLR (Kunming mice [2]; Figure 3A, MMI-0100 5 nmol i.c.v. or vehicle, chance level 50%) [%] | discrimination index (DI), OLR (Kunming mice [2]; [3]) [%] | mRNA level of IL-6, IL-1β, TNF-α and iNOS in hippocampus (IL-6, IL-1β, TNF-α, iNOS) | protein levels of IL-6, IL-1β and TNF-α in hippocampus (TNF-α, IL-1β, IL-6) | phosphorylation of MK2 (pMK2/tMK2) in hippocampus (MK2) | half-life (in vitro) [h]
Aβ1−42: Aβ1−42 peptide purchased from Hangzhou Chinese Peptide Biochemical Company, oligomer used to induce AD model | 50.96 | 50.98 | 48.04 | 46.31 | dramatically increased | higher | significantly up-regulated | –
YARAAARQARAKALARQLGVAA [MMI-0100] | – | – | – | – | – | – | – | ~2.69
